This is an account of results in US20230181543A1, “TREATMENT OF CARM1-OVEREXPRESSING AND/OR ARID1A MUTANT CANCERS WITH IRE-1/XBP-1 INHIBITORS” (The Wistar Institute of Anatomy and Biology, priority 2020, published 2023).

Entries after “also recorded” stand apart in the source; their conditions may differ.

One assay addresses EZH2 compared to EZH1 (Homo sapiens, UniProt Q15910). Conditions: cited from earlier work.
For a further assay, the system named is A1847 cells. The assay is described as follows: Dose response of B-I09 in wild-type and CARM1 knockout A1847 cells. Type of assay: cell-based. The conditions noted are these: wild-type vs CARM1 knockout A1847 cells (FIG. 3B).
The next assay concerns CARM1-high tumors. The assay is described as follows: Orthotopic CARM1-high and CARM1-low PDX and A1847 xenograft mouse models. Type of assay: in vivo, mice. Conditions: CARM1-high vs CARM1-low PDX; wild-type vs CARM1 knockout A1847 xenograft. The source says:
(FIG. 18A) Hematoxylin and eosin (HE) staining, and immunohistochemical staining with anti-CARM1 antibody in CARM1-low and CARM1-high PDX. (FIG. 18B) Confirmation of CARM1 expression levels in CARM1-low and -high PDXs by western blotting. A1847 and OVCAR3 cell lysates were used as positive control for CARM1-high and CARM1-low expression, respectively. (FIGS. 18C-D) Schematic of experimental design for PDX mouse model was shown. Mice with indicated orthotopic CARM1-high and CARM1-low PDXs were randomized into two groups and treated with vehicle control or B-I09. Tumor weight was measured as a representation for tumor burden at the end of the treatment. (FIGS. 18E-F) Schematic of experimental design for orthotopic injection A1847 xenograft was shown. Mice with indicated orthotopic injection of wild-type or CARM1 knockout A1847 cells were randomized into two groups and treated with vehicle control or B-I09. Tumor weight was measured as a representation for tumor burden at the end of the treatment. (FIG. 18G) Kaplan-Meier survival curves for indicated xenograft groups. P value was calculated by log rank test. (FIG. 18H) Immunohistochemistry for apoptotic marker cleaved caspase 3 and proliferation marker Ki67, histological scores (H-score) were calculated for three separate fields from five tumors from five individual mice from each of the indicated groups.

Assay [1] concerns A1847 cells with or without CARM1 knockout. The assay is described as follows: Western blotting of apoptotic markers (cleaved PARP, cleaved lamin A). Type of assay: cell-based. The conditions noted are these: CARM1-high parental vs CARM1 knockout cells, B-I09 treatment. The text has this:
(§1) FIGS. 4A-C. […] (FIG. 4A) Western blotting of apoptotic markers in A1847 cells with or without CARM1 knockout treated with or without B-I09. (FIGS. 4B-C) Schematics (FIG. 4B) and dose response curves (FIG. 4C) of A1847 cells with or without CARM1 knockout treated with B-I09 and rescued with BSA or oleic acid (OA).
FIGS. 15A-F. IRE-1a-XBP-1 pathway is required for CARM1-expressing OvCa. (FIG. 15A) Colony formation assays of wildtype and CARM1 knockout A 1847 and PEO4 cells treated with IRE-1α inhibitor B-I09 or 4μ8c. […] (FIG. 15C) Western blotting of apoptotic markers cleaved PARP and cleaved Lamin A and loading control β-actin. […] (FIG. 15D) The CARM1 levels in a panel of High Grade Serous Ovarian Cancer (HGSOC) cell lines were examined by western blotting. CARM1 is highly expressed in PEO4, OSAHO and A1847 cell lines. (FIG. 15E) Survival curves of colony formation assays of the panel of HGSOC cell lines treated with B-I09. (FIG. 15F) Comparison of IC50 of CARM1-high and CARM1-low HGSOC cell lines under treatment of B-I09.
(In general: In western blotting, separated proteins are transferred to a membrane and probed.)

The test system of another assay is ARID1A-mutant OCCC PDX. As to the kind of experiment: ARID1A-mutant OCCC PDX mice treated with B-I09. Type of assay: in vivo. Conditions: ARID1A-mutant OCCC PDX mice (FIG. 45).
In the next assay the test system is XBP-1. Conditions: B-I09 20 μM, 48 h (FIG. 3A). The text has this:
(FIG. 3B) Dose response curve of B-I09 in wild-type and CARM1 knockout A1847 cells. (FIG. 3C) The expression of CARM1 in different HGSOC cell lines. (FIG. 3D) The IC50 of B-I09 in CARM1-low and high HGSOC cells.
Next, the inventors investigated whether the activated IRE-1-XBP-1 pathway is required for the survival of CARM1-high parental cells. […] To investigate whether the IRE-1-XBP-1 inhibition suppresses CARM1-high cells through inducing cell death, western blotting of apoptotic markers was performed. […] Therefore, to investigate whether lipid biosynthesis affects the selectivity of CARM1-high cells to inhibit the XBP-1 pathway, cells are treated with B-I09 to inhibit the XBP-1 pathway and rescued with control BSA or oleic acid (OA) (FIG. 4B), which is the upstream product for lipid biosynthesis (Yao et al., 2017).

Assay [2] has as its system Arid1a flox/flox;(Gt)Rosa26Pik3ca*H1047R OCCC tumors. As to the kind of experiment: Genetic OCCC mouse model (conditional inactivation of Arid1a, activation of Pik3ca).
A further assay concerns ARID1A mutant tumor. As to the kind of experiment: ARID1A mutant tumor formation under B-I09. It is filed as in vivo. Conditions: FIG. 39, 40.
For the next assay, the system named is UPK10 cells. As to the kind of experiment: Orthotopic UPK10 xenograft, B-I09 with PD-1 immune therapy. It is filed as in vivo, B6 Mice. The conditions noted are these: B-I09 50 mg per kg, 5 weekdays per week i.p., with PD-1 10 mg per kg twice per week. The procedure:
(FIG. 19A) Western blotting of CARM1 and loading control […]-actin in UPK10, […] and OVCAR3 cells. (FIG. 19B) Schematic of experimental design for orthotopic injection UPK10 xenograft was shown. B6 Mice with indicated orthotopic injection of UPK10 cells were randomized into four different treatment groups and treated with control vehicle, B-[…] (50 mg per kg, 5 weekdays per week by i.p.), PD-1 (10 mg per kg, twice per week) or a combination. (FIG. 19C) Tumor weight was measured as a representation for tumor burden at the end of the treatment. coefficient of drug interaction (CDI) was calculated. (FIG. 19D) Tumor infiltrated lymphocytes (TILs) was analyzed by flow cytometry. The percentage of CD4^+ T cell, CD8^+ T cell, B cell in […] cell and macrophage were shown.

The subject of assay [3] is hematological malignancies. The conditions noted are these: cited from earlier work.
The nature of assay [4]: B-I09 treatment with CD8 depletion. It is filed as in vivo. The conditions noted are these: FIG. 44.
In the next assay the test system is RMG1 cells. As to the kind of experiment: Cisplatin and B-I09 combination in RMG1 wild-type and ARID1A knock-out cells. Type of assay: cell-based. Conditions: RMG1 wild-type vs RMG1 ARID1A knock-out cells (FIG. 11); preliminary. The text has this:
FIG. 11. […] IC50 of cisplatin in RMG1 wild-type compared to RMG1 ARID1A knock-out cells in combination with B-I09. Data from 3 replicates.
Resistance to cisplatin has been associated with an increase in ER stress-mediated cellular survival mechanisms in ovarian cancer (Avril et al., 2017; Lei et al., 2015; Xu et al., 2015). […] The inventors hypothesize that ER stress inhibition is synergistic with platinum-based chemotherapy in ARID1A-mutated OCCCs. To test this hypothesis, the inventors will treat ARID1A wild-type, ARID1A CRISPR-Cas9 knock-out, and ARID/A-mutant or wild-type OCCC cells with increasing concentrations of cisplatin or carboplatin. ER stress response induction will be analyzed by western blot and RT-qPCR analyzing the expression of ER stress response proteins such as IRE-1, XBP-1, PERK, ATF6 and BiP. They expect that platinum-based therapy-induces enhanced ER stress responses in ARID1A mutant/knock-out cells. ER stress response induction may sensitize them to treatment combination of platinum-based therapies and B-I09. […] The inventors will expand this analysis into a panel of ARID1A wild-type (such as RMG1, OVCA429 and KK) and mutant (such as TOV21G, OVTOKO, and OVISE) OCCC cell lines to further establish the efficacy of combination treatment of platinum-based therapy and B-I09. […]

In assay [5] the test system is A1847 cells with or without CARM1 knockout. The assay is described as follows: Oleic acid rescue of B-I09-treated cells. Type of assay: cell-based. The conditions noted are these: cells treated with B-I09, rescued with BSA or oleic acid (FIG. 4C); preliminary.
From the text: as §1

Chain of EZH2 compared to EZH1 (Q15910 whole entry): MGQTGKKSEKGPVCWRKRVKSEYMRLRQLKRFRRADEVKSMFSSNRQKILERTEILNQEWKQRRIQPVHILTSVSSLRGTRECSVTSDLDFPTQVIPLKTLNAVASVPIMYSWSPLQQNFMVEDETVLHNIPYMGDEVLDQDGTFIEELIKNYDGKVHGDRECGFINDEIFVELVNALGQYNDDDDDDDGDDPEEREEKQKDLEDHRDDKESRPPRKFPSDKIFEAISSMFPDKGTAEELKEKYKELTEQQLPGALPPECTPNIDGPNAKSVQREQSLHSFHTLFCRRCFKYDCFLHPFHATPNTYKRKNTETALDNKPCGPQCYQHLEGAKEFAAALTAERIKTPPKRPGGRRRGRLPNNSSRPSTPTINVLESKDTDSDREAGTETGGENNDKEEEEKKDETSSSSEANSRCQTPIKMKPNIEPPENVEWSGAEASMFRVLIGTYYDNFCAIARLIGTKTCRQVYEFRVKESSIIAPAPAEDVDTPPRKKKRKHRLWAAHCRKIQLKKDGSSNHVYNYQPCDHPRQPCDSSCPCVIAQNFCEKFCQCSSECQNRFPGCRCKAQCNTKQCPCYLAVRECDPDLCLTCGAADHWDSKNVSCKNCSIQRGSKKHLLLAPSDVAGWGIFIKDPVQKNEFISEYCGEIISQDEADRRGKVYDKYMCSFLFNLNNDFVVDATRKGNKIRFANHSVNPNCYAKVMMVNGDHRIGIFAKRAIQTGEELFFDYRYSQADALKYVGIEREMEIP
Chain of EZH2 compared to EZH1 (O75530 whole entry partner): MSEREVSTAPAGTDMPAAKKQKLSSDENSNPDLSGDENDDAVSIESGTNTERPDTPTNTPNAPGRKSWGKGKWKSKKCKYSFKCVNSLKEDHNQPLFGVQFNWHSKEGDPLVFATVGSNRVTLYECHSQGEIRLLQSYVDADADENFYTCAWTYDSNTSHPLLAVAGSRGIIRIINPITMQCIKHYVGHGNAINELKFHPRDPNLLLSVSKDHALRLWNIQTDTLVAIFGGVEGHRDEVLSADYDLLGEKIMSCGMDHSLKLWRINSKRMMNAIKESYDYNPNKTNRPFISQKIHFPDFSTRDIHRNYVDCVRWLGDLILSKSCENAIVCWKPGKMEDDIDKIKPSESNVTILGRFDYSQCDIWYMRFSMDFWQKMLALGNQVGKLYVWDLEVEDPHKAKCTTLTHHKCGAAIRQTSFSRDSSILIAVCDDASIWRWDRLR
Chain of EZH2 compared to EZH1 (Q15022 whole entry partner): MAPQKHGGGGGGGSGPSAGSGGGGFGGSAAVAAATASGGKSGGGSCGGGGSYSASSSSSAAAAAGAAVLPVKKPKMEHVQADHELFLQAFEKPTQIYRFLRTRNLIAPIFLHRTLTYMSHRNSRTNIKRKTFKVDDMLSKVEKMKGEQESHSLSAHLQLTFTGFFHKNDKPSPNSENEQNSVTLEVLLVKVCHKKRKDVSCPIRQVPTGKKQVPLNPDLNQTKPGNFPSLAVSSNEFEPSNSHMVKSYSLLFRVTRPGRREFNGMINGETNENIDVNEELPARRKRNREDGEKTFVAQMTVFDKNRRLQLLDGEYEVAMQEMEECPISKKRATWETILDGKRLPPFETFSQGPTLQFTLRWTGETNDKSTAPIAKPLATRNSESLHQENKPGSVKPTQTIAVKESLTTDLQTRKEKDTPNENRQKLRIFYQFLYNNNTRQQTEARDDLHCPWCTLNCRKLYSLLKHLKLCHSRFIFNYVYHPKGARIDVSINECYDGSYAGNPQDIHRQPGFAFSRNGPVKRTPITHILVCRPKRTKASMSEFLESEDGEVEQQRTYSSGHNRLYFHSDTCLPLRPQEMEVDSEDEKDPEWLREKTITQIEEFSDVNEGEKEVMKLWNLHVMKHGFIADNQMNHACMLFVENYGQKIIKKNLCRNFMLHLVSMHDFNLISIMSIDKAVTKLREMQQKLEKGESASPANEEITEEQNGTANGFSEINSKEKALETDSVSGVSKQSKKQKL
Chain of EZH2 compared to EZH1 (Q09028 whole entry partner): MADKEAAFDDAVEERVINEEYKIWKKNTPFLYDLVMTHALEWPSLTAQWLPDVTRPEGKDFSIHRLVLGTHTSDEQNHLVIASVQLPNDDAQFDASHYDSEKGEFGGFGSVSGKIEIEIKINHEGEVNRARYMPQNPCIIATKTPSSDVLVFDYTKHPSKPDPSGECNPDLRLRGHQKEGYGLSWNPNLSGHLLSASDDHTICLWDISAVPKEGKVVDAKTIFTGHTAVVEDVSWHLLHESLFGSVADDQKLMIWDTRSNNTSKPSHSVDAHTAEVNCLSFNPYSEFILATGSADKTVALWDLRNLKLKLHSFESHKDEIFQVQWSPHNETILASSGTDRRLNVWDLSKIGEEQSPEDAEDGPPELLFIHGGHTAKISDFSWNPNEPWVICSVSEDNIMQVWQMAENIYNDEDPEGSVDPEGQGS

Turning to `Cc1cc(C)c(CNC(=O)c2cc(-c3ccc(CN4CCOCC4)cc3)cc3c2cnn3C2CCCC2)c(=O)[nH]1` [EPZ005687], the “selectivity for EZH2 over EZH1” value on EZH2 compared to EZH1 was 50 fold.

On to `O=c1oc2c(C3OCCCO3)c(O)ccc2c2c1CNCC2` [B-I09], for which the “sensitivity to B-I09, dose response curve” value with A1847 cells is recorded as “wild-type cells are significantly more sensitive to B-I09 compared with knockout cells”. Also, the “sensitivity of tumors (tumor weight, survival) to B-I09” value in the assay with CARM1-high tumors is reported as “CARM1-high tumors are sensitive to IRE-1α-XBP-1 inhibition”. Also, the “induction of apoptosis (cleaved PARP, cleaved lamin A)” value in assay [1] is given as “specifically induces apoptosis in CARM1-high cells; also recorded: specifically induced apoptosis in wildtype CARM1-high cells; also recorded: selectively induced apoptosis in CARM1-high but not CARM1-low or CARM1 knockout HGSOC cells”. The tumor growth entry in the assay with ARID1A-mutant OCCC PDX is recorded as “suppresses tumor growth”. In the assay on XBP-1, the “activation of XBP-1 / expression of active XBP-1s” value is on record as “inhibits the activation of XBP-1; also recorded: decreasing the expression of active XBP-1s”. In addition, the “survival (Kaplan-Meier)” value in assay [2] (50 mg/Kg B-I09, tumor bearing mice) is on record as “enhances mouse survival”. Moreover, the “tumor growth / progression (tumor weight)” value in assay [2] (50 mg/Kg B-I09 for 3 weeks (5 days on/2 off)) is listed as “reduces OCCC tumor growth in vivo; also recorded: suppresses tumor progression”. Also, in the assay with ARID1A mutant tumor, the “ARID1A mutant tumor formation” value was “selectively suppresses ARID1A mutant tumor formation”. In the assay on UPK10 cells, the “drug interaction on tumor weight (coefficient of drug interaction)” value is on record as “synergizes with PD-1 immune therapy”. Besides, the “efficacy in hematological malignancies” value in assay [3] is listed as “has been effective in treating hematological malignancies”. In addition, the “effect of CD8 depletion on B-I09 treatment” value in assay [4] was “CD8 depletion does not affect B-I09 treatment”.

`N.N.[Cl][Pt][Cl]` [cisplatin]: the “IC50 of cisplatin in combination with B-I09” value with RMG1 cells was “reduces the IC50 of cisplatin more effectively in RMG1 CRISPR/Cas9 KO cells compared to their wild-type parental control; also recorded: Loss of ARID1A promotes sensitivity to cisplatin and B-I09 combination”.

In the case of `CCCCCCCC/C=C\CCCCCCCC(=O)O` [oleic acid], the “rescue from B-I09 inhibition of XBP-1” value in assay [5] is “can rescue A1847 wild-type cells from the inhibition of XBP-1 but has no effect on CARM1 knockout cells”.
